Data on four molecules can be found in ChEMBL document CHEMBL1201862, “PubChem BioAssay data set” (2004).

The source made the active and inactive calls. Bounds are passed on as bounds.

Assay [1] deals with CHO-K1. The assay is described as follows: Counterscreen for antagonists of the orexin 1 receptor (OX1R; HCRTR1): Homogeneous time resolved fluorescence (HTRF)-based cell-based dose response assay to identify antagonists of the parental CHO-K1 cell line. [Related pubchem assays (depositor defined):AID434989, AID435008, AID463079, AID485270, AID492963, AID492964, AID492965, AID493232, AID504699, AID504701]. In kind it is functional. The note with it: Cricetulus griseus. (The purpose of a counterscreen is to sort out artefacts and off-target activity.)

Assay [2] is described as follows: Counterscreen for antagonists of the orexin 1 receptor (OX1R; HCRTR1): Fluorescence-based cell-based high throughput dose response assay to identify antagonists of the parental CHO cell line. [Related pubchem assays (depositor defined):AID434989, AID435008, AID463079, AID485270, AID492963, AID492964, AID492965, AID493232, AID504699, AID504701]. Type of assay: functional.

The target of assay [3] is T1, Orexin receptor type 2 (Homo sapiens, UniProt O43614). Briefly: Counterscreen assay for antagonists of the orexin 1 receptor (OX1R; HCRTR1): Homogeneous Time Resolved Fluorescence (HTRF)-based cell-based dose response assay for antagonists of the orexin 2 receptor (OX2R; HCRTR2), run by assay provider. In kind it is functional.
In assay [4] the target is T1, Orexin receptor type 2. Briefly: Counterscreen assay for antagonists of the orexin 1 receptor (OX1R; HCRTR1): Fluorescence-based cell-based dose response assay for antagonists of the orexin 2 receptor (OX2R; HCRTR2), run by assay provider. In kind it is functional.
Assay [5] deals with T2, Orexin/Hypocretin receptor type 1 (Homo sapiens, UniProt O43613). Briefly: Fluorescence-based cell-based high throughput dose response assay for antagonists of the orexin 1 receptor (OX1R; HCRTR1). [Related pubchem assays (depositor defined):AID434989, AID435008, AID463079, AID485270, AID492963, AID492964, AID492965, AID493232, AID504717, AID504718]. In kind it is functional.

Assay [6] concerns the target T2, Orexin/Hypocretin receptor type 1. Briefly: Homogeneous Time Resolved Fluorescence (HTRF)-based cell-based high throughput dose response assay for antagonists of the orexin 1 receptor (OX1R; HCRTR1). [Related pubchem assays (depositor defined):AID434989, AID435008, AID463079, AID485270, AID492963, AID492964, AID492965, AID493232, AID504717, AID504718]. Type of assay: functional.

Assay [7] has as its target T3, Protein skinhead-1 (Caenorhabditis elegans, UniProt P34707).
T3 sequence (P34707 whole entry): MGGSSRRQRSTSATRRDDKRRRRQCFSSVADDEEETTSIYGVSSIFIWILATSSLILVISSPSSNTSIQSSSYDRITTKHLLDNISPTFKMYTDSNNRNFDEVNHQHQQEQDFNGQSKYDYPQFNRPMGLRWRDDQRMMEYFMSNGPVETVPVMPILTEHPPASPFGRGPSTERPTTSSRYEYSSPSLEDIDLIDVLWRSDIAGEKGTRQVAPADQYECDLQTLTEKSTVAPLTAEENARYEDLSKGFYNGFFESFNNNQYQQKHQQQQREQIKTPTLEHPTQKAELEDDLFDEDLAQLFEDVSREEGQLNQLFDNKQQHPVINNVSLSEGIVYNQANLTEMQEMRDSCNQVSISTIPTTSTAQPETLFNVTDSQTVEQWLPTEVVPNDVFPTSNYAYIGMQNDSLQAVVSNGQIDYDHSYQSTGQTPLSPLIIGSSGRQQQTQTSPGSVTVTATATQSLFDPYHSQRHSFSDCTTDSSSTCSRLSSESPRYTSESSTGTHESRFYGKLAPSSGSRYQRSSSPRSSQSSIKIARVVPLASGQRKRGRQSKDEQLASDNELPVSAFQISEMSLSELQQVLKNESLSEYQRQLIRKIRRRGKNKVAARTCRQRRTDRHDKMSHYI
In kind it is functional.

For assay [8], the target named is T4, Sentrin-specific protease 8 (Homo sapiens, UniProt Q96LD8).
T4 sequence (Q96LD8 whole entry): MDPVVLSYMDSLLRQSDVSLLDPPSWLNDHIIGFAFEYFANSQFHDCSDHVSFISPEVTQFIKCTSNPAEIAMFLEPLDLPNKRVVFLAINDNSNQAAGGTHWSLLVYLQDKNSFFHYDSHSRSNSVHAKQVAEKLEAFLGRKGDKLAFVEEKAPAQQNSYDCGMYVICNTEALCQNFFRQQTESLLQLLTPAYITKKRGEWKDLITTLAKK
The assay is described as follows: SENP8 protease inhibitors, SAR follow-up, biochemical, luminescence (AID 504501). In kind it is functional.

Assay [9] concerns the target T5, Sentrin-specific protease 6 (Homo sapiens, UniProt Q9GZR1).
T5 sequence (Q9GZR1 whole entry): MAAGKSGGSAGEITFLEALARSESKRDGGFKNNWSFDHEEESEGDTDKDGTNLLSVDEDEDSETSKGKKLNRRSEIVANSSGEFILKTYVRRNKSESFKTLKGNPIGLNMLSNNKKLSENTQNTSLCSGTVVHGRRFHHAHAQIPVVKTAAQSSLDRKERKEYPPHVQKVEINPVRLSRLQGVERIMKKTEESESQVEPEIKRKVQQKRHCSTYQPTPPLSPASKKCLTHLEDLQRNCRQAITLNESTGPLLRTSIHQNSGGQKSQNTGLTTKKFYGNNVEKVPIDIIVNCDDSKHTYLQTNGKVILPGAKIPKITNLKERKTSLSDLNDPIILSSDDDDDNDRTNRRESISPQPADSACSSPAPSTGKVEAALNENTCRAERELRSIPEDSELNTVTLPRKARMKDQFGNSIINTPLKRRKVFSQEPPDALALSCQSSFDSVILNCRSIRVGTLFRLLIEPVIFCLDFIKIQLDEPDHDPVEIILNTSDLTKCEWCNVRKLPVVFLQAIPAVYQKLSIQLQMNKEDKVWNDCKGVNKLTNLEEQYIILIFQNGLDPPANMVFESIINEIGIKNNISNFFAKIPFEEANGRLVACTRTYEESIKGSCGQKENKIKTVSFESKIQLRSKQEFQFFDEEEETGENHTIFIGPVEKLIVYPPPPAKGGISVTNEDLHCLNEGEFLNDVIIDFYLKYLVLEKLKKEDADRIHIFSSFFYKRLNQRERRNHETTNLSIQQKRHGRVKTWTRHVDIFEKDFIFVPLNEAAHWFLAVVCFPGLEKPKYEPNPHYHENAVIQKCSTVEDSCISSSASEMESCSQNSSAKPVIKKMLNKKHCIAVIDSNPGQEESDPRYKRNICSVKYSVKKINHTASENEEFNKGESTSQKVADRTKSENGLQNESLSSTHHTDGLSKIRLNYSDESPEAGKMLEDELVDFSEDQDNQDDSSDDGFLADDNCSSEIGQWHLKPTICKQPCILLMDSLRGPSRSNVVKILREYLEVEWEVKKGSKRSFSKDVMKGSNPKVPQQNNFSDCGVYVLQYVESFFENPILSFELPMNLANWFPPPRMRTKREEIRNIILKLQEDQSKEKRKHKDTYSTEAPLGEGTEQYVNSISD
Briefly: SAR Analysis of small molecule inhibitors of Sentrin-specific protease 6 (SENP6) using a Luminescent assay. [Related pubchem assays (depositor defined):AID2582, AID2599]. Type of assay: functional.

The target of assay [10] is T6, Sentrin-specific protease 7 (Homo sapiens, UniProt Q9BQF6).
T6 sequence (Q9BQF6 whole entry): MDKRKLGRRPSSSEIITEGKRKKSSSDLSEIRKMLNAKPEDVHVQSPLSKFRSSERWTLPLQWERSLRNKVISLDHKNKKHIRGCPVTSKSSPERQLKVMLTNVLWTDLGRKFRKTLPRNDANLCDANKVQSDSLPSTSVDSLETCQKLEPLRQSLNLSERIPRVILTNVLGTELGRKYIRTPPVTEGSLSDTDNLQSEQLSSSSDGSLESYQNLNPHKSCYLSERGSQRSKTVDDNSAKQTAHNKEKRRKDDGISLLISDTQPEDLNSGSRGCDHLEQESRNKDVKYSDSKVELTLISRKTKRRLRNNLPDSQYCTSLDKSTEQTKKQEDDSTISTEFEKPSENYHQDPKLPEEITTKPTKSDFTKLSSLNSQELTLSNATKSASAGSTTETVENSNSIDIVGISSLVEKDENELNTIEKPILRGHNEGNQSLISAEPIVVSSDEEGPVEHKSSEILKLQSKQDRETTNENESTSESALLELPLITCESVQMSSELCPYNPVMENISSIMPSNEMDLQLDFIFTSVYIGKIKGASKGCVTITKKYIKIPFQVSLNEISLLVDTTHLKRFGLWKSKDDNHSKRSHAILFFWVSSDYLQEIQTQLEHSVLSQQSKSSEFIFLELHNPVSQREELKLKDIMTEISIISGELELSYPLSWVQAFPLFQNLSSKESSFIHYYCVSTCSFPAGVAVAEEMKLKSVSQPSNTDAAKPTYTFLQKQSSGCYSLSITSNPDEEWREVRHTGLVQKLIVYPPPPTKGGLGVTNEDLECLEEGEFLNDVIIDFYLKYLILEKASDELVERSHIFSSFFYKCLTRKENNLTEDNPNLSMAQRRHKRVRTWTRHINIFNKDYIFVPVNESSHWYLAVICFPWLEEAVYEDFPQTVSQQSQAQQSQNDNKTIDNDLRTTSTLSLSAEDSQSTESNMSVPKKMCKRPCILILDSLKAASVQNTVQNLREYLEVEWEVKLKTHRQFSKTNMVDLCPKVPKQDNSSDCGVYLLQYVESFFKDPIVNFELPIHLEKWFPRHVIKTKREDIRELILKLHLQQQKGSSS
Briefly: SENP7 protease inhibitors, SAR follow-up, biochemical, luminescence (AID 504497). Type of assay: functional.

Assay [11] addresses T4, Sentrin-specific protease 8. Briefly: SENP8 protease inhibitors, SAR follow-up, biochemical, luminescence, set 2 (AID 588601). In kind it is functional.
Assay [12] deals with T7, Caspase-3 (Homo sapiens, UniProt P42574).
T7 sequence (P42574 whole entry): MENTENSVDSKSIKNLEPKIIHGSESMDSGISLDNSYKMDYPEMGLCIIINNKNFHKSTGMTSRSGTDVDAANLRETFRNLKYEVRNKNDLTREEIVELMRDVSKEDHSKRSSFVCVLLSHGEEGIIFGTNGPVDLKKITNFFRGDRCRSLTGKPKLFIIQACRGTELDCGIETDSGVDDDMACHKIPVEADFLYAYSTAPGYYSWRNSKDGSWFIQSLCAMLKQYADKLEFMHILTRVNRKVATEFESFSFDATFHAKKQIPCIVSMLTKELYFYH
The assay is described as follows: caspase-3 inhibitors as off-family protease, SAR follow-up, selectivity assay for SENP protease inhibitor project, biochemical, luminescence, set 2 (AID 588599). Type of assay: functional.

The target of assay [13] is T5, Sentrin-specific protease 6. The assay is described as follows: SENP6 protease inhibitors, SAR follow-up, biochemical, luminescence, set 2 (AID 588598). Type of assay: functional.
Assay [14] addresses T6, Sentrin-specific protease 7. The assay is described as follows: SENP7 protease inhibitors, SAR follow-up, biochemical, luminescence, set 2 (AID 588600). In kind it is functional.
Assay [15] has as its target T7, Caspase-3. Briefly: SAR Analysis of small molecule inhibitors of Sentrin-specific proteases (SENPs) using a Caspase-3 Selectivity assay. [Related pubchem assays (depositor defined):AID2540, AID2599, AID434973, AID489001]. Type of assay: functional.
The test system of assay [16] is Candida albicans. The assay is described as follows: single-agent growth inhibition of C. albicans, dose response, counter-screen for antifungal drug resistance project, C. albicans CaCi-2, dry powder (AID 488802). In kind it is functional, organism-based.
The subject of assay [17] is NIH3T3. The assay is described as follows: cytotoxicity in NIH-3T3 fibroblasts, dose response, cytotoxicity control for antifungal drug resistance project, cell-based, Alamar Blue, fluconazole, dry powder (AID 488809). In kind it is functional. The settings on record: Mus musculus.
In assay [18] the target is CAAX prenyl protease 2 (Saccharomyces cerevisiae S288c, UniProt Q03530). Briefly: yeast Rce1 CaaX protease inhibitors, dose response, biochemical, plate reader, dry powder retest (AID 588851).
Assay [19] deals with Cytochrome P450 2D6 (Homo sapiens, UniProt P10635).
Sequence of Cytochrome P450 2D6 (P10635 whole entry): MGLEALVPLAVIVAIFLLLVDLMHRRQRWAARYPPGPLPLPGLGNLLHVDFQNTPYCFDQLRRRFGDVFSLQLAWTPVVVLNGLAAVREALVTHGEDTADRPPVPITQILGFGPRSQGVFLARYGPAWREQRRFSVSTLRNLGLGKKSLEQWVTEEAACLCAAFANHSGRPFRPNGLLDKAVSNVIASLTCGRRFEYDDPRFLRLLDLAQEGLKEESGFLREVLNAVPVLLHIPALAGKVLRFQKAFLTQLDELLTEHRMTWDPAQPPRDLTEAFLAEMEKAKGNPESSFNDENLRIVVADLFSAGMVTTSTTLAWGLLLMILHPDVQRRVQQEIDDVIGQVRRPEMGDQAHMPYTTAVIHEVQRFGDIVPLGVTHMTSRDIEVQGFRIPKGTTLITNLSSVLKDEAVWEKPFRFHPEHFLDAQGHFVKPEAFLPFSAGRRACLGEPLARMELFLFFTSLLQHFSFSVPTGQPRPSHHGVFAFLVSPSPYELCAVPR

T2 sequence (O43613 whole entry): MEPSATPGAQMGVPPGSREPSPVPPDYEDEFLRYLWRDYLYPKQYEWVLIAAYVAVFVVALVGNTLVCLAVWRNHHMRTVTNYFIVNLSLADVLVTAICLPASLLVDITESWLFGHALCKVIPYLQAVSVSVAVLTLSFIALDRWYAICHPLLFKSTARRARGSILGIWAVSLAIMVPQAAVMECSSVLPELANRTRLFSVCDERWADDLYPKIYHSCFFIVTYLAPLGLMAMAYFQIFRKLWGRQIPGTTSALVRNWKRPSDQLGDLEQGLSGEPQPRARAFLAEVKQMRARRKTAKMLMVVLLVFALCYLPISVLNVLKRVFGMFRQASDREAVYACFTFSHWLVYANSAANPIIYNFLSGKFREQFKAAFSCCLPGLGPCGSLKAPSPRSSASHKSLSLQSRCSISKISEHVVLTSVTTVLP
T1 sequence (O43614 whole entry): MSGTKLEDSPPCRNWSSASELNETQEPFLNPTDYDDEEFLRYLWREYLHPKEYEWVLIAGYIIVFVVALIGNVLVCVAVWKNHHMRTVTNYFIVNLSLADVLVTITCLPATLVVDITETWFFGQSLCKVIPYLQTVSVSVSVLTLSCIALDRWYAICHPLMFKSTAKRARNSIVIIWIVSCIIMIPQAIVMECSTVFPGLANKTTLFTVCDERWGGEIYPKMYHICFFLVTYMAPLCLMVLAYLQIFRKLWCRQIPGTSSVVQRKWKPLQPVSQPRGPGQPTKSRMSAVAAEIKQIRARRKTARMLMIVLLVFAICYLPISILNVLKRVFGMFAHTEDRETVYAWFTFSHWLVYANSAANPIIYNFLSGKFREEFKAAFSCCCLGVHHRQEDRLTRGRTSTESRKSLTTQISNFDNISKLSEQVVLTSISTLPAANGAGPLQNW
Sequence of CAAX prenyl protease 2 (Q03530 whole entry): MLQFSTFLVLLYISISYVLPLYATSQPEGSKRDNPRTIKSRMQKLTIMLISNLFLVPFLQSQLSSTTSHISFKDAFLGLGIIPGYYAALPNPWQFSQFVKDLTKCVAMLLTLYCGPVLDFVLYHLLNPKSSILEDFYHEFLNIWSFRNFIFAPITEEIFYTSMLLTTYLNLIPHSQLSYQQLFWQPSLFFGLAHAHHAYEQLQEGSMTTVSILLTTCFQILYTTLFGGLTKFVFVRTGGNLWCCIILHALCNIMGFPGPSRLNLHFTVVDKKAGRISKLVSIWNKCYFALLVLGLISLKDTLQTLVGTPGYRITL

On to `Cc1nn(C)c(C)c1/N=C/c1c(O)ccc2ccccc12`, for which the IC50 in assay [1] is > 66.2 µM (inactive); in [2], > 49.8 µM (inactive); in assay [3], > 50 µM (inactive); in [4] it was > 88.8 µM (inactive); in assay [5], 31.2 µM (inactive); in assay [6], 3.76 µM (active).
On to `C(=C\c1nc(-c2cccnc2)no1)/c1ccccc1`, for which the IC50 was 49 µM (active) in assay [7]; 23 µM (active) in assay [8]; 21 µM (active) in assay [9]; 5.3 µM (active) in assay [10]; 9.69 µM (active) in assay [11]; 9.23 µM (active) in assay [12]. For the same molecule, the IC50 in assay [13] was 8.23 µM (active); in assay [14], 8.26 µM (active); in [15], 6.2 µM (active).
As to `CC1CCN(C(=O)Cn2c3ccccc3c3nc4n(c(=O)c32)CCCS4)CC1`, the AC50 in assay [16] is 122 µM (active); in [17], > 260 µM (inactive).
`Cc1ccc(NC(=O)CCc2ccc(S(=O)(=O)NC3CCCCC3)cc2)cc1`: the results for the AC50 in assay [18] and in assay [19] were 11 µM (active) and 11.2 µM (inconclusive), respectively.

What is called IC50 is the concentration needed to halve the response being measured. As a reminder, the AC50 is the concentration giving half of the maximal activity seen.
